Data as given in US20160015038A1, “TREATED CROP PLANTS OR PLANT FOOD PRODUCTS WITH DECREASED BACTERIAL VIABILITY AND METHODS AND APPARATUSES FOR MAKING THE SAME” (EP Technologies LLC, priority 2014, published 2016).

Assays:
S. aureus = S. aureus viability on spinach leaves after plasma-activated mist exposure; assay type: cell-based; details: no plasma mist
E. coli (ATCC 35150) = assay: E. coli viability on spinach leaves after plasma-activated mist exposure; assay type: cell-based; details: no plasma mist
Description: E. coli (ATCC 35150) cultures were grown to stationary phase in tryptic soy broth (TSB; Difco, Becton Dickinson, Franklin Lakes, N.J.). Aliquots of the prepared cultures were mixed into a volume of sterile Milli-Q water (Millipore, Billerica, Mass.) that yields an overall bacterial inoculum percentage of 2%. Thirty microliter aliquots of the bacterial culture were used to spot inoculate regions on the leaf surface of each leaf sample. Cultures were air dried on the leaf samples for 1 hour.
An Ultrasonic 360 humidifier (Safety 1st; Columbus, Ind.) was connected to plastic tubing and fed into a custom small-scale plasma generator. The plasma configuration consisted of two parallel brass plate electrodes that have an area of 40 mm×45 mm and thickness of 5 mm. Polyetherimide was used as the housing material for the electrodes. The upper electrode was connected to a high voltage power supply (1-20 kV) with operating parameters that can be adjusted while the lower electrode is grounded. The adjustable outlet of the setup released plasma-activated water mist onto inoculated leaves fixed 2 mm beneath the opening. Plasma-activated water mist was applied to the inoculated leaves at intervals from 15 seconds to 2 minutes. […]
Bacterial viability was […]. […] Data was analyzed using GraphPad Prism and InStat graphical and statistical software (GraphPad Software, Inc., La Jolla, Calif.). […]

O=CC=Cc1ccccc1 [cinnamaldehyde]
log10 reduction of S. aureus caused by additive alone (S. aureus): less than 0.2 | log10 reduction of E. coli caused by additive alone (E. coli (ATCC 35150)): < 0.4
